Assay results as given in patent US5310667A (priority 1989, dated 1994).

Tests used:
[1] = molecular target: T1, petunia EPSP synthase glycine (101) to alanine variant (Petunia hybrida, UniProt P11043, G173A); test: EPSP synthase kinetic constants (appKi glyphosate, appKm PEP); format: biochemical; settings: relative to wild type
T1 construct: made in house; host or cells: E. coli
Procedure: (§1) To an assay mix (40 μl) containing shikimate-3-phosphate (2 mM), ^14 C-phosphoenolpyruvate (1 mM, 1.2 mCi/mmol), ammonium molybdate (0.1 mM), potassium fluoride (5 mM) in 50 mM HEPES-KOH, pH 7, was added the extract and incubated at 25° C. for 2 mins. The reaction was quenched by the addition of 50 μl of 50 μl of 90% ethanol/0.1M acetic acid, pH 4.5. 70 μl of the reaction mixture was loaded on a SynchroPak AX100 HPLC column (0.4×25 cm) and the column was eluted with 0.5M potassium phosphate, pH 5.5 at 1 ml/min. The radioactivity of the eluent was monitored using a Radiomatic Flo-One Beta Instrument. (Radiomatics, Fla.). The EPSP synthase activity was determined by measurement of the conversion of ^14 C-PEP to ^14 C-EPSP synthase, both of which are resolved under the above conditions of chromatography. The protein content of the extract was determined by the method of Bradford (Biorad Labs, Calif.). The specific activity of the extract is expressed as nanomoles of EPSP synthase formed/min/mg protein.
(§2) Kinetic constants (appKm PEP and appKi glyphosate) were determined for EPSP synthase as described below. Substrate kinetic parameters were determined at pH 7.0 in 50 mM HEPES (N-[2-hydroxyethyl]piperazine-N'-[2-ethanesulfonic acid]) buffer in the presence of 2 mM S3P and varying amounts of ^14 C-PEP (10 μM-400 μM), for 2.0 minutes at 25° C. Reactions were quenched with 100 mM Na Acetate in ethanol, pH 4.5, centrifuged and analyzed for product EPSP formation by HPLC with flow radioactivity detection. HPLC conditions were 0.35 MKPi, pH 6.5, on a Synchropak AX100 column at 1.0 ml/min.

[2] = molecular target: T2, variant petunia EPSP synthase with glycine (101) to alanine and glycine (144) to asparagine substitutions (Petunia hybrida, UniProt P11043, G173A/G216N); test: EPSP synthase kinetic constants (Ki glyphosate, Km PEP); format: biochemical
T2 construct: GGT codon for glycine (144) in the mature petunia EPSP synthase
Procedure: as §2

[3] = molecular target: T3, pMON8186 encoded petunia EPSP synthase variant (glycine (101) to alanine and glycine (144) to aspartic acid) (Petunia hybrida, UniProt P11043, G173A/G216D); test: EPSP synthase kinetic constants (appKi glyphosate, appKm PEP); format: biochemical
T3 construct: GGT codon for glycine (144) in the mature petunia EPSP synthase; made in house; host or cells: E. coli SR481
Procedure: The balance of the #215 preculture (~750 μl) was used to inoculate 2 ml of MOPS medium containing 50 μg/ml carbenicillin and was shaken overnight at 37° C. to reach saturation. Plasmid DNA was isolated from an aliquot of the saturated culture using an alkaline lysis procedure. The plasmid was designated pMON8186. An aliquot of the pMON8186 plasmid was used to transform the E. coli host SR481 (described above) and reselected on MOPS medium containing 10 mM glyphosate and 50 μg/ml carbenicillin. A single glyphosate resistant colony of pMON8186 was picked off the selection plate and used to inoculate 3 ml of 2XYT bacterial medium containing 50 μg/ml carbenicillin. The culture was then aerated on rotating wheel at 37° C. until saturated, then it was used to inoculate a larger 500 ml culture. The large culture was grown to saturation by shaking it overnight at 37° C. in a water bath. The bacterial cells were lysed and the extracts were assayed for EPSPS activity.
Specifically, the bacterial cell paste was washed twice with 0.9% saline, suspended in buffer (100 mM Tris-HCl, 5 mM benzamidine HCl) and passed twice through the French Pressure Cell at 1000 psi. The cell extract was separated from the cells by centrifuging at 15,000 x gravity for 10 mins. at 5° C. It was desalted using Sephadex G-50 (Pharmacia, Piscataway, N.J.). The desalted extract was assayed for EPSP synthase activity as follows:
as §1, with “70 μl of the reaction mixture was loaded on a SynchroPak AX100 HPLC column (0.4×25 cm) and the column was eluted with 0.5M potassium phosphate, pH 5.5 at 1 ml/min.” left out, “(Radiomatics, Fla.).” left out
as §2, with “HPLC conditions were 0.35 MKPi, pH 6.5, on a Synchropak AX100 column at 1.0 ml/min.” left out

[4] = substrate: C=C(OP(=O)(O)O)C(=O)O; test: purified protein, by the assay type; settings: 25.0 °C

T3 sequence (P11043 73-516 G173A/G216D): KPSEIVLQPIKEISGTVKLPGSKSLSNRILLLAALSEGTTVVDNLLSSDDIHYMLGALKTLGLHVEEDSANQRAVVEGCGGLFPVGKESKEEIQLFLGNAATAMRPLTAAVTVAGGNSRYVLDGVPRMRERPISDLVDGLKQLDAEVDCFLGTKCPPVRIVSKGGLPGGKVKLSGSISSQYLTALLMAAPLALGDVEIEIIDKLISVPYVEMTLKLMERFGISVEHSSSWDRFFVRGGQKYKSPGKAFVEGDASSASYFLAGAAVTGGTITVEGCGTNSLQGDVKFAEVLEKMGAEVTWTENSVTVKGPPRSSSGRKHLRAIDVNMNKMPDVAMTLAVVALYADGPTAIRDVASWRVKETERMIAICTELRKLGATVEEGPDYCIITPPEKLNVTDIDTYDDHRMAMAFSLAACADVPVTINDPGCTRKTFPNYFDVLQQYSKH
T1 sequence (P11043 73-516 G173A): as the sequence (P11043 73-516 G173A/G216D) above, with D144G counted along it
T2 sequence (P11043 73-516 G173A/G216N): as the sequence (P11043 73-516 G173A/G216D) above, with D144N counted along it

With `O=C(O)C1=C[C@@H](OP(=O)(O)O)[C@@H](O)[C@H](O)C1` [S3P, shikimate-3-phosphate] the “binding constant for shikimate-3-phosphate (S3P)” value [1] was “not affected”.

For `C=C(OP(=O)(O)O)C(=O)O` [PEP, phosphoenolpyruvate], the “Km for PEP” value [2] was 91 µM, the “Km for PEP” value [3] was 40 µM and the “Km for PEP relative to the glycine (101) to alanine variant” value [3] was “more than four fold lower”.

B1: wild type petunia EPSP synthase (Petunia x hybrida) (protein)
chain: KPSEIVLQPIKEISGTVKLPGSKSLSNRILLLAALSEGTTVVDNLLSSDDIHYMLGALKTLGLHVEEDSANQRAVVEGCGGLFPVGKESKEEIQLFLGNAGTAMRPLTAAVTVAGGNSRYVLDGVPRMRERPISDLVDGLKQLGAEVDCFLGTKCPPVRIVSKGGLPGGKVKLSGSISSQYLTALLMAAPLALGDVEIEIIDKLISVPYVEMTLKLMERFGISVEHSSSWDRFFVRGGQKYKSPGKAFVEGDASSASYFLAGAAVTGGTITVEGCGTNSLQGDVKFAEVLEKMGAEVTWTENSVTVKGPPRSSSGRKHLRAIDVNMNKMPDVAMTLAVVALYADGPTAIRDVASWRVKETERMIAICTELRKLGATVEEGPDYCIITPPEKLNVTDIDTYDDHRMAMAFSLAACADVPVTINDPGCTRKTFPNYFDVLQQYSKH
In the case of B1, the Km [4] is reported as 5.2 µM.
